“And” between values parts separate entries of the source, which are not always exact repeats. Equal values may be shown once. The source made the active and inactive calls. How the calls were made is not given here.
Target: Ubiquitin-conjugating enzyme E2 N (Homo sapiens) (UniProt P61088)
Assay: UBC13 polyubiquitination inhibitors, SAR follow-up, biochemical, TR-FRET, set 4 (AID 602404)

Sequence of Ubiquitin-conjugating enzyme E2 N (Homo sapiens) (P61088 whole entry, looked up): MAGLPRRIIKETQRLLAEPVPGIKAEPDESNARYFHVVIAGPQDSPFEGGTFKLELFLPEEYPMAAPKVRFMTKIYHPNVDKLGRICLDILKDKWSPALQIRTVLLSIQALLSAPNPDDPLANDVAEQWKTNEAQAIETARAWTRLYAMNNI

| Compound | IC50 |
| --- | --- |
| O=C(C1CCN(c2ncnc3c2nc2n3CCCCC2)CC1)N1CCN(c2ccccn2)CC1 | inactive |
| Cc1ccc(NC(=O)C2CCCN(c3ncnc4c3nc3n4CCCCC3)C2)cc1Br (stereo not given) | > 100 µM (inactive) |
| Cc1ccc(NC(=O)C2CCN(c3ncnc4c3nc3n4CCCC3)CC2)cc1F | inactive |
| Cc1cc(C)cc(NC(=O)C2CCN(c3ncnc4c3nc3n4CCCC3)CC2)c1 | inactive |
| O=C(Nc1cc(F)ccc1F)C1CCN(c2ncnc3c2nc2n3CCCCC2)CC1 | inactive |
| O=C(NCC1CCN(Cc2cccc(Cl)c2)CC1)C1CCCN(c2ncnc3c2nc2n3CCCC2)C1 (stereo not given) | 0.962 µM |
| Cc1ccc(NC(=O)C2CCN(c3ncnc4c3nc3n4CCCC3)CC2)cc1C | inactive |
| O=C(Nc1cccc(Cl)c1)C1CCN(c2ncnc3c2nc2n3CCCCC2)CC1 | 5.75 µM |
| Cc1ccc(NC(=O)C2CCN(c3ncnc4c3nc3n4CCCCC3)CC2)cc1Cl | 3.95 µM |
| Cc1cccc(N2CCN(CCCNC(=O)C3CCCN(c4ncnc5c4nc4n5CCCCC4)C3)CC2C)c1 (stereo not given) | 19.1 µM |
| O=C(C1CCN(c2ncnc3c2nc2n3CCCCC2)CC1)N1CCOCC1 | inactive |
| CCCN1CCN(C(=O)C2CCN(c3ncnc4c3nc3n4CCCCC3)CC2)CC1 | 3.05 µM |
| Cc1cc(C)cc(NC(=O)C2CCN(c3ncnc4c3nc3n4CCCCC3)CC2)c1 | > 100 µM (inactive) |
| O=C(c1ccco1)N1CCN(C(=O)C2CCN(c3ncnc4c3nc3n4CCCCC3)CC2)CC1 | inactive |
| O=C(NCC1CCN(Cc2cccc(Cl)c2)CC1)[C@@H]1CCCN(c2ncnc3c2nc2n3CCCCC2)C1 | 3.37 µM |
| O=C(NCC1CCN(Cc2ccc(Cl)c(Cl)c2)CC1)C1CCCN(c2ncnc3c2nc2n3CCCCC2)C1 (stereo not given) | 4.03 µM |
| Cc1ccc(NC(=O)C2CCCN(c3ncnc4c3nc3n4CCCC3)C2)cc1Br (stereo not given) | inactive |
| Cc1ccc(NC(=O)C2CCN(c3ncnc4c3nc3n4CCCCC3)CC2)c(Cl)c1 | > 100 µM (inactive) |
| O=C(NCc1ccc(Cl)c(Cl)c1)C1CCCN(c2ncnc3c2nc2n3CCCCC2)C1 (stereo not given) | > 100 µM (inactive) |
| O=C(NCc1ccc(Cl)c(Cl)c1)C1CCN(c2ncnc3c2nc2n3CCCCC2)CC1 | > 100 µM (inactive) |
| CN(CCNC(=O)C1CCN(c2ncnc3c2nc2n3CCCCC2)CC1)Cc1ccccc1 | 1.23 µM |
| O=C(NCC1CCN(Cc2ccc(Cl)c(Cl)c2)CC1)C1CCCN(c2ncnc3c2nc2n3CCCC2)C1 (stereo not given) | 5.74 µM |
| O=C(NCCCN1CCN(c2ccccc2)CC1)C1CCCN(c2ncnc3c2nc2n3CCCCC2)C1 (stereo not given) | 3.06 µM |
| O=C(NCC1CCN(Cc2ccccc2Cl)CC1)C1CCCN(c2ncnc3c2nc2n3CCCC2)C1 (stereo not given) | 1.04 µM |
| Cc1cccc(NC(=O)C2CCCN(c3ncnc4c3nc3n4CCCCC3)C2)c1 (stereo not given) | > 100 µM (inactive) |

| Compound | IC50 |
| --- | --- |
| O=C(NCC1CCN(Cc2cccc(Cl)c2)CC1)[C@H]1CCCN(c2ncnc3c2nc2n3CCCCC2)C1 | 15 µM |
| Cc1ccc(NC(=O)C2CCN(c3ncnc4c3nc3n4CCCCC3)CC2)cc1Br | > 100 µM (inactive) |
| O=C(NCC1CCN(Cc2ccccc2Cl)CC1)C1CCCN(c2ncnc3c2nc2n3CCCCC2)C1 (stereo not given) | 2.28 µM |
| O=C(NCC1CCN(Cc2ccc(Cl)cc2)CC1)C1CCCN(c2ncnc3c2nc2n3CCCC2)C1 (stereo not given) | 6.79 µM |
| CC1CCCCN1C(=O)C1CCN(c2ncnc3c2nc2n3CCCCC2)CC1 (stereo not given) | > 100 µM (inactive) |
| COc1cc(Cl)c(C)cc1NC(=O)C1CCN(c2ncnc3c2nc2n3CCCCC2)CC1 | > 100 µM (inactive) |
| Cc1cc(C)cc(NC(=O)C2CCCN(c3ncnc4c3nc3n4CCCCC3)C2)c1 (stereo not given) | inactive |
| O=C(NCC1CCN(Cc2cccc(Cl)c2)CC1)[C@@H]1CCCN(c2ncnc3c2nc2n3CCCC2)C1 | 0.781 µM |
| O=C(NCC1CCN(Cc2ccc(F)cc2)CC1)C1CCCN(c2ncnc3c2nc2n3CCCCC2)C1 (stereo not given) | 2.87 µM |
| Cc1ccc(NC(=O)C2CCCN(c3ncnc4c3nc3n4CCCC3)C2)cc1F (stereo not given) | inactive |
| Cc1cccc(NC(=O)C2CCN(c3ncnc4c3nc3n4CCCCC3)CC2)c1C | inactive |
| O=C(NCC1CCN(Cc2ccccc2F)CC1)C1CCCN(c2ncnc3c2nc2n3CCCCC2)C1 (stereo not given) | 8.42 µM |
| CC1CC(C)CN(C(=O)C2CCN(c3ncnc4c3nc3n4CCCCC3)CC2)C1 (stereo not given) | inactive |
| Cc1ccc(NC(=O)C2CCN(c3ncnc4c3nc3n4CCCC3)CC2)cc1Br | inactive |
| O=C(NCC1CCN(Cc2ccc(Cl)cc2)CC1)C1CCCN(c2ncnc3c2nc2n3CCCCC2)C1 (stereo not given) | 2.75 µM |
| Cc1c(Cl)cccc1NC(=O)C1CCN(c2ncnc3c2nc2n3CCCCC2)CC1 | 11.8 µM |
| COc1cc(OC)c(NC(=O)C2CCN(c3ncnc4c3nc3n4CCCCC3)CC2)cc1Cl | inactive |
| O=C(NCC1CCN(Cc2cccc(Cl)c2)CC1)C1CCCN(c2ncnc3c2nc2n3CCCCC2)C1 (stereo not given) | 0.813 µM and 1.13 µM |
| Cc1ccc(C)c(CN2CCC(CNC(=O)C3CCCN(c4ncnc5c4nc4n5CCCCC4)C3)CC2)c1 (stereo not given) | 2.69 µM |
| Cc1ccc(NC(=O)C2CCN(c3ncnc4c3nc3n4CCCCC3)CC2)cc1F | inactive |
| O=C(NCCCN1CCCCC1)C1CCN(c2ncnc3c2nc2n3CCCCC2)CC1 | 3.42 µM |
| Cc1ccc(C)c(N2CCN(CCCNC(=O)C3CCCN(c4ncnc5c4nc4n5CCCCC4)C3)CC2)c1 (stereo not given) | 9.51 µM |
| O=C(NCCCN1CCN(c2ccc(F)cc2)CC1)C1CCCN(c2ncnc3c2nc2n3CCCCC2)C1 (stereo not given) | 2.22 µM |
| CCC1CCCCN1CCCNC(=O)C1CCN(c2ncnc3c2nc2n3CCCCC2)CC1 (stereo not given) | 5.66 µM |
| O=C(NCc1cccc(Cl)c1)C1CCCN(c2ncnc3c2nc2n3CCCCC2)C1 (stereo not given) | inactive |

| Compound | IC50 |
| --- | --- |
| O=C(Nc1ccc(F)c(Cl)c1)C1CCN(c2ncnc3c2nc2n3CCCCC2)CC1 | 5.67 µM |
| Cc1cc(Cl)ccc1NC(=O)C1CCN(c2ncnc3c2nc2n3CCCCC2)CC1 | inactive |
| Cc1ccc(NC(=O)C2CCCN(c3ncnc4c3nc3n4CCCC3)C2)cc1C (stereo not given) | inactive |
| O=C(C1CCN(c2ncnc3c2nc2n3CCCCC2)CC1)N1CCC(Cc2ccccc2)CC1 | 14 µM |
| Cc1ccccc1CN1CCC(CNC(=O)C2CCCN(c3ncnc4c3nc3n4CCCCC3)C2)CC1 (stereo not given) | 3.55 µM |
| COc1ccc(NC(=O)C2CCN(c3ncnc4c3nc3n4CCCCC3)CC2)cc1Cl | inactive |
| O=C(C1CCN(c2ncnc3c2nc2n3CCCCC2)CC1)N1CCN(c2ccccc2)CC1 | inactive |
| O=C(NCc1cccc(Cl)c1)C1CCN(c2ncnc3c2nc2n3CCCC2)CC1 | 12.6 µM |
| Cc1cccc(NC(=O)C2CCN(c3ncnc4c3nc3n4CCCC3)CC2)c1 | inactive |
| Cc1ccc(NC(=O)C2CCCN(c3ncnc4c3nc3n4CCCCC3)C2)cc1F (stereo not given) | inactive |
| Cc1cccc(NC(=O)C2CCCN(c3ncnc4c3nc3n4CCCC3)C2)c1 (stereo not given) | inactive |
| O=C(NCc1cccc(Cl)c1)C1CCN(c2ncnc3c2nc2n3CCCCC2)CC1 | inactive |
| Cc1cc(C)cc(NC(=O)C2CCCN(c3ncnc4c3nc3n4CCCC3)C2)c1 (stereo not given) | inactive |
| O=C(NCc1ccc(Cl)c(Cl)c1)C1CCN(c2ncnc3c2nc2n3CCCC2)CC1 | > 100 µM (inactive) |
| CC1CCCC(C)N1CCCNC(=O)C1CCCN(c2ncnc3c2nc2n3CCCCC2)C1 (stereo not given) | 8.74 µM |
| O=C(C1CCN(c2ncnc3c2nc2n3CCCCC2)CC1)N1CCN(c2ccc(F)cc2)CC1 | inactive |
| Cc1cccc(NC(=O)C2CCN(c3ncnc4c3nc3n4CCCCC3)CC2)c1 | inactive |
| COc1ccc(Cl)cc1NC(=O)C1CCN(c2ncnc3c2nc2n3CCCCC2)CC1 | inactive |
| O=C(Nc1ccc(CN2CCCCC2)cc1)C1CCN(c2ncnc3c2nc2n3CCCCC2)CC1 | inactive |
| O=C(NCc1ccc(Cl)c(Cl)c1)C1CCCN(c2ncnc3c2nc2n3CCCC2)C1 (stereo not given) | inactive |
| O=C(C1CCN(c2ncnc3c2nc2n3CCCCC2)CC1)N1CCN(c2ncccn2)CC1 | inactive |
| COc1ccccc1N1CCN(CCCNC(=O)C2CCCN(c3ncnc4c3nc3n4CCCCC3)C2)CC1 (stereo not given) | inactive |
| O=C(C1CCN(c2ncnc3c2nc2n3CCCCC2)CC1)N1CCN(Cc2ccccc2)CC1 | 3.05 µM |
| O=C(NCc1cccc(Cl)c1)C1CCCN(c2ncnc3c2nc2n3CCCC2)C1 (stereo not given) | > 100 µM (inactive) |
| O=C(NCC1CCN(Cc2cccc(Cl)c2)CC1)[C@H]1CCCN(c2ncnc3c2nc2n3CCCC2)C1 | 2.66 µM |
